Reference: article PMC6600523, “Interference with Amyloid-β Nucleation by Transient Ligand Interaction” (Molecules, 2019)
Where a SMILES comes first, the peptide text is derived from it. [ ]: non-standard residue; d: D form.

What was measured:
[1] = target: n-terminally biotinylated Aβ42 monomers; settings: read-out: KD for D3 and Aβ42 by SPR; n-terminally biotinylated Aβ42 monomers fixed on sensor chips via biotin-streptavidin; cited from earlier work
Aβ42 [2] = target: T1, Aβ42 (Homo sapiens, UniProt P05067); experiment: ThT assay, fibrillation kinetics of Aβ42; format: biochemical; settings: 50 mM NaCl pH 7.4, 20 °C, AmyloFit fit, triplicate
T1 construct: purchased Bachem H-1368.1000
Description: ThT was added at a final concentration of 5 μM in all samples. The final volume of each sample was 200 μL. Samples were prepared on ice and were pipetted into a 96-well plate afterwards. The plate was sealed with a microplate sealing film. All measurements were conducted at 20 °C with a microplate reader (Infinite M200, Tecan, Männedorf, Switzerland). The fluorescence was recorded at an excitation wavelength (λex) of 445 nm and an emission wavelength (λem) of 485 nm every 30 min for 120 h. […] All samples were prepared in triplicate.
The ThT data was then subjected to the online server AmyloFit with a customized sigmoidal Equation (1) to determine the lag time tlag , and the half completion time of the aggregation process t1/2 , according to previous studies. (1) It=k0t+A/1+exp−kt−t1/2, where k0 represents the slope of the baseline, A is the amplitude, k denotes the apparent elongation rate constant. The lag time tlag can be derived from the intercept between the time axis and the tangent with slope k from the midpoint of the fitted sigmoidal curve, which is given by the following Equation (2):(2) tlag=t1/2−2/k

Aβ42 [3] = target: T1, Aβ42; experiment: Seeding experiment, ThT kinetics of seeded Aβ42; format: biochemical; settings: 20 mM sodium phosphate, 50 mM NaCl pH 7.4, 20 °C
Description: The sample was then incubated quiescently at room temperature for 120 h. […] Samples were pipetted to a 96-well plate, with each well containing 200 μL samples. The plate was then covered with a sealing film. ThT fluorescence of all samples was recorded using the same device and parameters, as described above for ThT assays. All samples were prepared in duplicate. Final data was normalized and averaged based on the repetitions.

Aβ42 [4] = target: T1, Aβ42; experiment: Absorbance-based AUC, size distribution of Aβ42 after 24 h; format: biochemical; settings: 20 μM Aβ42 with 2 μM D3, 24 h, 20 mM sodium phosphate, 50 mM NaCl pH 7.4, 20 °C; absorbance AUC at 210 nm, 45,000 rpm; compared with Aβ42 alone
Description: In brief, 380 μL samples were loaded into 12-mm double-sector aluminum cellsm and were thermally equilibrated prior to the final centrifugation. The centrifugation was performed at 45,000 rpm, 20 °C for 15.5 h. Sedimentation profiles were recorded at 210 nm, with a radial resolution of 20 μm.
All sedimentation profiles were subjected to the software package SEDFIT (version 15.01b) for data evaluation. The data was analyzed with the continuous distribution c(s) Lamm equation model to obtain the sedimentation coefficient distributions. Fitting parameters (Table S1) including the buffer density and viscosity were determined using Sednterp (version 20130813BETA). […] Final graphs were generated using GUSSI (version 1.2.1) and sedimentation coefficients were standardized to s-values in pure water at 20 °C (s20,w).

Aβ42 [5] = target: T1, Aβ42; experiment: Circular dichroism spectroscopy, secondary structure transition of Aβ42; format: biochemical; settings: 20 mM sodium phosphate, 50 mM NaF pH 7.4, 20 °C
Description: NaF was used to substitute NaCl in this measurement to maintain the ionic strength of the buffer, so as to avoid the strong absorbance of NaCl in the far-UV area. […] All samples were prepared on ice before being transferred to 1 mm path length quartz cuvettes. The final volume of each sample was 200 μL. Circular dichroism (CD) spectra were recorded from 260 nm to 190 nm using a J-815 spectropolarimeter (Jasco, Tokyo, Japan). All measurements were carried out with a step size of 0.5 nm and a bandwidth of 2 nm. The scanning speed was set to 100 nm/min and 10 scans were accumulated for each sample. […] Samples were maintained at 20 °C within the measurement duration of 120 h, and were prepared in triplicate. CD spectra for all samples were deconvoluted using the online server Dichroweb by applying the CDSSTR algorithm and reference dataset Set 7 [87].

[6] = Sedimentation velocity AUC with fluorescence detection, labeled peptide alone; format: physicochemical; settings: sedimentation velocity AUC-FDS of FITC-D3 alone, 0.2 μM, 20 mM sodium phosphate, 50 mM NaCl pH 7.4, 0.0004% PEI
Description: All measurements were performed using an XL-A analytical ultracentrifuge (Beckman coulter, Brea, CA, USA). […] All samples were prepared in 20 mM sodium phosphate, 50 mM NaCl (pH 7.4) containing 0.0004% PEI (w/v). Samples were then loaded into 3-mm double-sector titanium cells (Nanolytics, Potsdam, Germany), with each sector containing a 100 μL sample. The detection system uses an excitation laser at 488 nm and an emission cut-off filter at 505 nm to collect fluorescence signals. The amplification factor was adjusted to the same value for all samples for comparability. […] Data was acquired at 20 nm radial resolution. After thorough thermal equilibration the centrifugation was carried out at 60,000 rpm (289,000× g) at 20 °C for 15 h. Carrier proteins, such as albumin and kappa casein, are usually recommended to minimize unspecific surface adsorption for fluorescence-based AUC [56]. All sedimentation profiles were subjected to the software package SEDFIT (version 15.01b) for data evaluation. The data was analyzed with the continuous distribution c(s) Lamm equation model to obtain the sedimentation coefficient distributions. Fitting parameters (Table S1) including the buffer density and viscosity were determined using Sednterp (version 20130813BETA). […]

Aβ42 [7] = target: T1, Aβ42; experiment: Sedimentation velocity AUC with fluorescence detection, Aβ42 and D3 mixtures; format: binding; settings: 0.33 μM FITC-Aβ42 with various D3 concentrations; 55 mM Tris-HCl, 50 mM NaCl pH 7.4, 0.01% Tw20; D3 concentration-dependent
Description: All measurements were performed using an XL-A analytical ultracentrifuge (Beckman coulter, Brea, CA, USA). […] All samples were prepared in 20 mM sodium phosphate, 50 mM NaCl (pH 7.4) containing 0.0004% PEI (w/v). Samples were then loaded into 3-mm double-sector titanium cells (Nanolytics, Potsdam, Germany), with each sector containing a 100 μL sample. The detection system uses an excitation laser at 488 nm and an emission cut-off filter at 505 nm to collect fluorescence signals. The amplification factor was adjusted to the same value for all samples for comparability. […] Data was acquired at 20 nm radial resolution. After thorough thermal equilibration the centrifugation was carried out at 60,000 rpm (289,000× g) at 20 °C for 15 h. Carrier proteins, such as albumin and kappa casein, are usually recommended to minimize unspecific surface adsorption for fluorescence-based AUC [56]. All sedimentation profiles were subjected to the software package SEDFIT (version 15.01b) for data evaluation. The data was analyzed with the continuous distribution c(s) Lamm equation model to obtain the sedimentation coefficient distributions. Fitting parameters (Table S1) including the buffer density and viscosity were determined using Sednterp (version 20130813BETA). […] Final graphs were generated using GUSSI (version 1.2.1) and sedimentation coefficients were standardized to s-values in pure water at 20 °C (s20,w).

[8] = 20 μM Aβ42 with (label D3) or without (label Aβ42) 2 μM D3, 20 mM sodium phosphate, 5 μM ThT
[9] = 20 μM Aβ42 with (label D3, 10:1) or without (label Aβ42) 2 μM D3, 55 mM Tris-HCl

T1 sequence (P05067 672-713 limits assumed): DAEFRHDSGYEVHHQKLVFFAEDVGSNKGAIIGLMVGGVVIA

For `CC(C)C[C@@H](NC(=O)[C@@H](CCCNC(=N)N)NC(=O)[C@H](NC(=O)[C@@H](CCCNC(=N)N)NC(=O)[C@H]1CCCN1C(=O)[C@H](N)CCCNC(=N)N)[C@H](C)O)C(=O)N[C@H](Cc1c[nH]cn1)C(=O)N[C@@H](C(=O)N[C@H](Cc1c[nH]cn1)C(=O)N[C@H](CCCNC(=N)N)C(=O)N[C@H](CC(N)=O)C(=O)N[C@H](CCCNC(=N)N)C(N)=O)[C@H](C)O` [D3] (H-[dR][dP][dR][dT][dR][dL][dH][dT][dH][dR][dN][dR]-NH2), the Kd [1] is listed as roughly 4 µM, the “Half completion time t1/2 of fibrillation kinetics” value (Aβ42 [2]; [8]) is listed as 79.3 ± 2.3 h and the “Lag time tlag of fibrillation kinetics” value (Aβ42 [2]; [8]) is listed as 67.6 ± 3.8 h. The “Slope k of fibrillation kinetics” value (Aβ42 [2]; [8]) was 0.18 ± 0.07, the “Half completion time t1/2 of fibrillation kinetics, Tris-HCl buffer” value (Aβ42 [2]; [9]) was 74.5 ± 2.8 h and the “Lag time tlag of fibrillation kinetics, Tris-HCl buffer” value (Aβ42 [2]; [9]) was 59.3 ± 2.2 h. For the same compound, the “Slope k of fibrillation kinetics, Tris-HCl buffer” value (Aβ42 [2]; [9]) was 0.14 ± 0.04, the MST KD compared with SPR KD was 10 fold and the “Effect on ThT kinetics of Aβ42 with 1% seeds” value (Aβ42 [3]; 10 μM Aβ42, 1% seeds, 1 μM D3, compared with Aβ42 without D3) was “longer lag phase”. For the same compound, the “Effect on ThT kinetics of Aβ42 with 5% seeds” value (Aβ42 [3]; 10 μM Aβ42, 5% seeds, 1 μM D3 (0.1-fold), slopes compared with Aβ42 with 5% seeds only) was “retardation of the elongation process”, the “Size distribution of Aβ42 samples with D3 after 24 h” value (Aβ42 [4]) was “no such large aggregates” and the “Effect of delayed D3 addition on the structural transformation of Aβ42” value (Aβ42 [5]; 4 μM D3 added into 40 μM Aβ42 after 33 h preincubation) was “visibly delayed the structural transformation of Aβ42”. For the same compound, the “Ellipticity at 217 nm of the Aβ42 sample with D3 relative to Aβ42 alone” value (Aβ42 [5]; 40 μM Aβ42 with 4 μM D3, at 120 h, triplicate) was “about 72%”, the “Self-assembly or aggregation of D3 in solution” value [6] was “does not form any self-assemblies or aggregates” and the “s20,w of new species formed on incubating D3 with FITC-Aβ42” value (Aβ42 [7]) was 1.54 ± 0.11 S.
